Data as given in publication PMC5503199 (Molecular microbiology, 2009).
“And” between values parts separate entries of the source, which are not always exact repeats. Equal entries are not always repeated. Where two headings read alike, the source gives them in different places.

Legend:
ChoXWV = molecular target: T1, ChoXWV (Sinorhizobium meliloti, UniProt Q92N37); experiment: Competitive uptake, MKH13 expressing choXWV; type: cell-based; details: pNchoXWV, SBP ChoX, [^14C]choline 10 μM, competitor 1 mM
T1 sequence (Q92N37 28-318): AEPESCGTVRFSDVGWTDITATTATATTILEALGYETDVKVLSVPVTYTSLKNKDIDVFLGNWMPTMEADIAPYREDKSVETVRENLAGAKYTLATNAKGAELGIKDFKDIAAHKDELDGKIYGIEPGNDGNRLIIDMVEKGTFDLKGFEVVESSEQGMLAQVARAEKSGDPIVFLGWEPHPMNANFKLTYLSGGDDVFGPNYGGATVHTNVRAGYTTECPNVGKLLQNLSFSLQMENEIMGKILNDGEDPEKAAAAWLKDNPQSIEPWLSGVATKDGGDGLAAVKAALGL
T1 sequence (Q92N36 1-281 partner): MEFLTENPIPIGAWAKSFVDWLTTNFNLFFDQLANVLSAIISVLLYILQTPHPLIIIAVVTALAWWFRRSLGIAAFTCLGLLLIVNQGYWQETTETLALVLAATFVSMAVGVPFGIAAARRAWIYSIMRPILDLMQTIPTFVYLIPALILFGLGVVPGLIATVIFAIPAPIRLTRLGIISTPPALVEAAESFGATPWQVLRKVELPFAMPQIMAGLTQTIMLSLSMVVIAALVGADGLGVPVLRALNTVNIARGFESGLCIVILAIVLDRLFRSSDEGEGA
T1 sequence (Q92N35 1-349 partner): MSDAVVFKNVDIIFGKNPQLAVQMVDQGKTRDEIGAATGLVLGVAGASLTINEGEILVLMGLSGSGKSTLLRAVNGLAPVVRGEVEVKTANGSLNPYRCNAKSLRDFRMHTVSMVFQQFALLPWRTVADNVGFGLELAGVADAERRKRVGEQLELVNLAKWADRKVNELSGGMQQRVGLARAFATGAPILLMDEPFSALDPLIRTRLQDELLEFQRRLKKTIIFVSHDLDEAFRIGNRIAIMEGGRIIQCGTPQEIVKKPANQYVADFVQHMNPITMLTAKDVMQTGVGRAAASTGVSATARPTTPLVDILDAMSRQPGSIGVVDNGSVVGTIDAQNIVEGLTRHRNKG

CbcX with CbcWV = CbcX with CbcWV (Pseudomonas aeruginosa, UniProt Q9HTI6); experiment: Competitive uptake, MKH13 expressing cbcXWV; type: cell-based
CaiX with CbcWV = type: cell-based, Pseudomonas aeruginosa; details: MKH13; pNcbcWV, pT-PA5388; SBP CaiX; [^14C]carnitine 10 μM; competitor 1 mM
CbcX and CaiX with CbcWV = type: cell-based, Pseudomonas aeruginosa; details: MKH13, pNcbcXWV, pT-PA5388, SBPs CbcX/CaiX, competitor 1 mM
BetX with CbcWV = molecular target: T2, BetX with CbcWV (Pseudomonas aeruginosa, UniProt Q9HZ04); experiment: Competitive uptake, MKH13 expressing cbcWV and betX; type: cell-based; details: pNcbcWV, pT-PA3236, SBP BetX, [^14C]betaine 10 μM, competitor 1 mM
T2 sequence (Q9HZ04 26-285): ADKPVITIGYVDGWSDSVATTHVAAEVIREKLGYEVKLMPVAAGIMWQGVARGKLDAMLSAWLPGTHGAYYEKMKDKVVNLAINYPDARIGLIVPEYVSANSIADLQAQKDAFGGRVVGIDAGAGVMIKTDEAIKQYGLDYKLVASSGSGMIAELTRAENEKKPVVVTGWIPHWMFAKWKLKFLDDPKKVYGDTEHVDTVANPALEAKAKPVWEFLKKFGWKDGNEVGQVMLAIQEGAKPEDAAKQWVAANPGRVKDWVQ
T2 sequence (Q9HTI7 1-279 partner): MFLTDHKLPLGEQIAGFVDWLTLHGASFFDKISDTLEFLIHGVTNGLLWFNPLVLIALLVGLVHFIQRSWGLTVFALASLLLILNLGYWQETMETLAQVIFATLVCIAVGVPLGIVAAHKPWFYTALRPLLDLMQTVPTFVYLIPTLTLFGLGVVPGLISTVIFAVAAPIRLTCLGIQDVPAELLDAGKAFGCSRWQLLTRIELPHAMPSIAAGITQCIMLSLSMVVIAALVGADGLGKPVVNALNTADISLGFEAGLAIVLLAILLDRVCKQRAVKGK
T2 sequence (Q9HTI8 1-392 partner): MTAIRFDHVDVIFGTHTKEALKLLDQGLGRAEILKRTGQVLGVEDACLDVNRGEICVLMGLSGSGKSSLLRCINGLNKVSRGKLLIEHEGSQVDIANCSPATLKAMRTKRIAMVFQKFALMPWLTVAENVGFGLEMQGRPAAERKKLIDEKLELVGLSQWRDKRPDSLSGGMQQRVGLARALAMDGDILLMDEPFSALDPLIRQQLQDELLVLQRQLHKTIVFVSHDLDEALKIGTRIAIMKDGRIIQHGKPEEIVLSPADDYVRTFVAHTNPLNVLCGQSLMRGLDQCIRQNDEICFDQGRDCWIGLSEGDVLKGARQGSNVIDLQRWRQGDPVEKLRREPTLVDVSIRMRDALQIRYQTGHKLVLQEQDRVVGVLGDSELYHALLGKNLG

[1] = substrate: C[N+](C)(C)C[C@H](O)CC(=O)[O-]; experiment: cells, lysate or membranes; details: other: PA5378::tn, pNcbcWV; SBP CaiXPAO1; mean (SE), n = 4
[2] = substrate: C[N+](C)(C)CCO; experiment: cells, lysate or membranes; details: mean (SE), n = 4
[3] = substrate: C[N+](C)(C)CC(=O)O; experiment: cells, lysate or membranes; details: mean (SE), n = 4
[4] = other: MKH13, pNcbcXWV, SBP CbcX, Michaelis–Menten fit

CC(=O)OCC[N+](C)(C)C [AC, acetylcholine]
% inhibition of uptake of substrate by unlabelled competitor (ChoXWV): 88%

C[N+](C)(C)CCOP(=O)(O)O [PC, phosphorylcholine]
% inhibition of uptake of substrate by unlabelled competitor (ChoXWV): 5% | % inhibition of uptake of substrate by unlabelled competitor (CbcX with CbcWV; MKH13, pNcbcXWV, SBP CbcX, [^14C]choline 10 μM, competitor 1 mM): 1%

CNCC(=O)O [MM, monomethylglycine]
% inhibition of uptake of substrate by unlabelled competitor (ChoXWV): −4% | % inhibition of uptake of substrate by unlabelled competitor (CbcX with CbcWV): −3% and 2% | % inhibition of uptake of substrate by unlabelled competitor (CaiX with CbcWV): 0% | % inhibition of uptake of substrate by unlabelled competitor (CbcX and CaiX with CbcWV; [^14C]betaine 10 μM): 3% | % inhibition of uptake of substrate by unlabelled competitor (CbcX and CaiX with CbcWV; [^14C]choline 10 μM): 2% | % inhibition of uptake of substrate by unlabelled competitor (BetX with CbcWV): −13%

CN(C)CC(=O)O [DM, dimethylglycine]
% inhibition of uptake of substrate by unlabelled competitor (CbcX with CbcWV): 4% | % inhibition of uptake of substrate by unlabelled competitor (CbcX with CbcWV; MKH13, pNcbcXWV, SBP CbcX, [^14C]betaine 10 μM, competitor 1 mM): −5% | % inhibition of uptake of substrate by unlabelled competitor (CaiX with CbcWV): 2% | % inhibition of uptake of substrate by unlabelled competitor (CbcX and CaiX with CbcWV; [^14C]betaine 10 μM): −4% | % inhibition of uptake of substrate by unlabelled competitor (CbcX and CaiX with CbcWV; [^14C]choline 10 μM): −8% | % inhibition of uptake of substrate by unlabelled competitor (BetX with CbcWV): 56%

B1: CbcWV-CaiX (Pseudomonas aeruginosa PAO1) (protein)
chain: AEPEQCRTVRLGTVNWTDVVASSAVAEALLDGLGYQVKQTSASQQIVLAGLADKQLDLFLGYWQPTMQPVARPYLDKGRIEVIEPPTLADAQSTYAVPSYVAEGGLKTFADIARFKDKLGGRIYAIEPGSGSNRITRKMIDDNRFGLKGFQLVESSEAGMLTAVKRAIKRKQWVVFFGWKPHPMNLQIDMTYLTGSEDVFGPDEGAATVSTMTAAGYQAQCGNVARLLHNLRFSSAQVSQVMAPILDRTQPLDAARQWLKANPEPLKAWLDGVSTFDGKDGLAALQASLK
Km [1]: 24 μM and 24.2 (8.3) μM

B2: ChoXWV (Sinorhizobium meliloti 1021) (protein)
chain: AEPESCGTVRFSDVGWTDITATTATATTILEALGYETDVKVLSVPVTYTSLKNKDIDVFLGNWMPTMEADIAPYREDKSVETVRENLAGAKYTLATNAKGAELGIKDFKDIAAHKDELDGKIYGIEPGNDGNRLIIDMVEKGTFDLKGFEVVESSEQGMLAQVARAEKSGDPIVFLGWEPHPMNANFKLTYLSGGDDVFGPNYGGATVHTNVRAGYTTECPNVGKLLQNLSFSLQMENEIMGKILNDGEDPEKAAAAWLKDNPQSIEPWLSGVATKDGGDGLAAVKAALGL
Km ([2]; other: MKH13, pNchoXWV, SBP ChoX): 1.8 (0.36) μM

B3: CbcX with CbcWV (Pseudomonas aeruginosa PAO1) (protein)
chain: AEPESCASVRFADVGWTDITVTTAVTRQVLESLGYKTKVNLLSVPVTYRSLANNDLDVFLGNWMPTMTNDIKQYAEKGTVETLRANLEGAKYTLAVPQYVYDGGLRSFADIAKFSDKLGNKIYGIEPGNDGNRVAQSMIDKNAFELGKFKLVESSEAGMLSQVQRAIRRNQWVVFLGWEPHPMNTRFQMKYLEGGDDFFGPNYGGATIYTNVRKGYAQECANVGQLLKNLSFTLEMENKLMDAVLNENKKPEEAAKAWLKDHPEQLDAWLAGVTTRDGQPAAAAAKLAFAK
Km [3, 4]: 24.2 (2.4) μM | Vmax [3, 4]: 11.6 (0.6) nmol min^-1 | Km [2, 4]: 2.6 (0.66) μM

B4: BetX with CbcWV (Pseudomonas aeruginosa PAO1) (protein)
chain: ADKPVITIGYVDGWSDSVATTHVAAEVIREKLGYEVKLMPVAAGIMWQGVARGKLDAMLSAWLPGTHGAYYEKMKDKVVNLAINYPDARIGLIVPEYVSANSIADLQAQKDAFGGRVVGIDAGAGVMIKTDEAIKQYGLDYKLVASSGSGMIAELTRAENEKKPVVVTGWIPHWMFAKWKLKFLDDPKKVYGDTEHVDTVANPALEAKAKPVWEFLKKFGWKDGNEVGQVMLAIQEGAKPEDAAKQWVAANPGRVKDWVQ
Km ([3]; other: MKH13, pNcbcWV + pTPA3236, SBP BetX): 0.6 (0.16) μM
